Measurements reported in PMC5557053 (European journal of clinical pharmacology, 2011).
“And” between values parts separate entries of the source, which are not always exact repeats. Equal values may be shown once.

Legend:
[1] = test system: OCT1; settings: cited from earlier work
[2] = Population PK analysis, nonlinear mixed-effect modeling
[3] = test system: efflux transporters (ABCB1, ABCG2); settings: CML cells; cited from earlier work
[4] = test system: BCR-ABL transcript level; assay: Exposure-efficacy: BCR-ABL ratio and MMR at 12 months by observed Cmin quartile; type: in vivo, human
[5] = clinical; settings: human, serum, oral
[6] = Exposure-safety: logistic regression against model-predicted AUC0–24; type: in vivo, human; settings: for predicted incidence of all grade total bilirubin elevation: median baseline total bilirubin 6.84 μmol/L; for AUC(0-t): human, serum, oral
[7] = human, in vivo
[8] = population mean (standard error)

Cc1cn(-c2cc(NC(=O)c3ccc(C)c(Nc4nccc(-c5cccnc5)n4)c3)cc(C(F)(F)F)c2)cn1 [nilotinib]
dependence of movement into CML cells on influx transporter OCT1 [1]: independent of the influx transporter OCT1
predicted decrease in CL ([2]; AST increase from ULN to 1.5 × ULN): 1%
predicted decrease in CL ([2]; AST increase from ULN to 2 × ULN): 3%
σ1, proportional random error ([2]; estimate (standard error)): 29.8 (0.917) %
σ2, additive random error ([2]; estimate (standard error)): 110 (17.4) ng/mL
Interindividual variability of CL ([2]; final model, % (SE)): 37.6% and 37.6 (1.4) %
Interindividual variability of V1 ([2]; final model, % (SE)): 79.2% and 79.2 (14.2) %
Interindividual variability of V2 ([2]; final model, % (SE)): 98.9% and 98.9 (19.7) %
interindividual variability of CL before addition of significant covariates ([2]; model without covariates): 40.0%
D1, zero-order input duration [2, 8]: 9.88 (0.112) h
V2, volume of distribution of peripheral compartment [2, 8]: 181 (25.4) L
Lag, lag time for absorption ([2]; population mean, fixed): 0.67 h (fixed)
lower bioavailability or systemic exposure in male than female patients ([2]; same dose level): approximately 10%
predicted decrease in CL ([2]; total bilirubin increase from ULN to 1.5 × ULN): 12%
predicted decrease in CL ([2]; total bilirubin increase from ULN to 2 × ULN): 23%
predicted decrease in CL ([2]; total bilirubin increase from ULN to 2.5 × ULN): 32%
role of efflux transporters (ABCB1, ABCG2) in cellular retention [3]: none of them appear to play an important role
MMR difference vs Q1 (95% CI) ([4]; Q2/3 829–1,569 ng/mL vs Q1): 1.7 (−10.4, 13.8)
MMR difference vs Q1 (95% CI) ([4]; Q4 >1,569 ng/mL vs Q1): 4.6 (−9.3, 18.6)
MMR difference vs Q2/3 (95% CI) ([4]; Q4 >1,569 ng/mL vs Q2/3): 2.9 (−9.0, 14.8)
MMR at 12 months ([4]; average Cmin Q1 <829 ng/mL, evaluable patients n observed 96): 45 (46.9) n (%)
MMR at 12 months ([4]; average Cmin Q2/3 829–1,569 ng/mL, evaluable patients n observed 208): 101 (48.6) n (%)
MMR at 12 months ([4]; average Cmin Q4 >1,569 ng/mL, evaluable patients n observed 101): 52 (51.5) n (%)
Vd [5]: 58 L
clearance [5]: 350 mL/min
predicted incidence of all grade abnormalities, hemoglobin ([6]; AUC0–24 16 μg·h/mL): 31.7%
predicted incidence of all grade abnormalities, lipase ([6]; AUC0–24 16 μg·h/mL): 17.4%
predicted incidence of all grade total bilirubin elevation ([6]; AUC0–24 16 μg∙h/mL): 29.4%
predicted incidence of all grade abnormalities, hemoglobin ([6]; AUC0–24 24 μg·h/mL): 36.4%
predicted incidence of all grade abnormalities, lipase ([6]; AUC0–24 24 μg·h/mL): 23.8%
predicted incidence of all grade total bilirubin elevation ([6]; AUC0–24 24 μg∙h/mL): 46.5%
predicted incidence of all grade abnormalities, hemoglobin ([6]; AUC0–24 32 μg·h/mL): 39.9%
predicted incidence of all grade abnormalities, lipase ([6]; AUC0–24 32 μg·h/mL): 29.3%
predicted incidence of all grade total bilirubin elevation ([6]; AUC0–24 32 μg∙h/mL): 59.5%
AUC(0-t) [6]: 25900 ng·h/mL
AUC(0-t) ([6]; male, 300 mg): 24000 ng·h/mL
higher exposure in 400 mg twice-daily arm than in 300 mg twice-daily arm [7]: 11.5%
